Literature values as cited in patent US11197823B2, “Topiramate oral liquid suspension and use thereof” (OWP Pharmaceuticals, Inc., priority 2019, dated 2021).

Q: For `CC1(C)O[C@@H]2[C@@H](CO[C@@]3(COS(N)(=O)=O)OC(C)(C)O[C@@H]23)O1` [Topiramate, 2,3:4,5-Di-O-isopropylidene-β-D-fructopyranose sulfamate], which “solubility in organic solvents and alkaline solutions” value (acetone, dimethyl sulfoxide, ethanol, and alkaline solutions containing sodium hydroxide or sodium phosphate) is on record?
A: freely soluble

Q: What about the solubility in water (water, room temperature) of the same compound?
A: approximately 9.8 mg/mL
